These results are taken from paper PMC4573970, “Further validation to support clinical translation of [^18F]FTC-146 for imaging sigma-1 receptors” (EJNMMI Research, 2015).

One test addresses T1, sigma-1 receptor (S1R) (Mus musculus, UniProt O55242).
T1 construct: gene Sigmar1; native receptor in WT mouse brain
Put plainly: in vivo PET blocking of […]FTC-146 ([…] mg/kg), with S1R-KO control. In kind it is cell-based.

Test [1] addresses T2, vesicular acetylcholine transporter (VAChT) (Homo sapiens, UniProt Q16572).
T2 construct: gene SLC18A3
T2 sequence (Q16572 1-532): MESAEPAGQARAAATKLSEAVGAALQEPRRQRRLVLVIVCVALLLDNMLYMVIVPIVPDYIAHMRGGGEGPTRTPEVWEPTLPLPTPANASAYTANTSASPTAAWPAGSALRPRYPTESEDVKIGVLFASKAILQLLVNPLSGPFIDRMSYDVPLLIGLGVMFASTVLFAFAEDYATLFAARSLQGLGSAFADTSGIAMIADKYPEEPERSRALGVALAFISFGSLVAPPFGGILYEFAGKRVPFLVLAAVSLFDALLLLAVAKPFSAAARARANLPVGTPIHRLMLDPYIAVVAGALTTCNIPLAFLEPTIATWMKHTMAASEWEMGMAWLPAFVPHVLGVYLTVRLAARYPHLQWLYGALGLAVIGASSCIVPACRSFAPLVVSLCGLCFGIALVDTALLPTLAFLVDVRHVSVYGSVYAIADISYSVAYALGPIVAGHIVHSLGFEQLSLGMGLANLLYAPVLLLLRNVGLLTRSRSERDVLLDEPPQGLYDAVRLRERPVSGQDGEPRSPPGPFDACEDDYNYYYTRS

T1 sequence (O55242 whole entry): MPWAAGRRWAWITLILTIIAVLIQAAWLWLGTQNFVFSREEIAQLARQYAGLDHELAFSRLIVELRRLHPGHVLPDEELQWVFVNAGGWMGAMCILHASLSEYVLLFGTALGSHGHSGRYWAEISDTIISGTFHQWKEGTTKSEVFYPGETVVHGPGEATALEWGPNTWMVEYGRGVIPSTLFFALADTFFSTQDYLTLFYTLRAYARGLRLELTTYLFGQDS

With `CN(C)CCN(C)CCc1ccc(Cl)c(Cl)c1` [BD1047], the “in vivo PET blocking of [18F]FTC-146 (1 mg/kg), with S1R-KO control” value on sigma-1 receptor (S1R) is reported as “following receptor blocking with a known S1R antagonist (BD-1047), showed similarly rapid washout of tracer”.

In turn, `O=c1sc2cc(CCCF)ccc2n1CCN1CCCCCC1` [FTC-146] yielded a Ki in test [1] of 450 ± 80 nM.

By Ki is commonly meant the equilibrium dissociation constant of an inhibitor or competing ligand from its target. Low values mean tighter binding, high ones weaker binding.
